Source: PubChem BioAssay AID256 (DTP/NCI, 2004)
“And” between values parts separate entries of the source, which are not always exact repeats. Identical values can stand only once. Toxic doses and inconclusive results are not listed.

System: CD2F1 mice, L1210 leukemia ip, survival T/C
Experiment: NCI In Vivo Anticancer Drug Screen. Data for tumor model L1210 Leukemia (intraperitoneal) in CD2F1 (CDF1) mice
Settings: higher = longer survival
In short: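 Implant tumor; dose compound or vehicle; measure endpoint in both groups; report treated divided by control.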

[1] = endpoint: mean survival time, dose: 100.0 mg/kg/injection, schedule: Q04DX003 (ip), vehicle: saline
[2] = endpoint: mean survival time, dose: 200.0 mg/kg/injection, schedule: Q04DX003 (ip), vehicle: saline
[3] = endpoint: mean survival time, dose: 100.0 mg/kg/injection, schedule: Q04DX003 (ip), vehicle: saline with Tween-80
[4] = endpoint: mean survival time, dose: 200.0 mg/kg/injection, schedule: Q04DX003 (ip), vehicle: saline with Tween-80
[5] = endpoint: mean survival time, dose: 100.0 mg/kg/injection, schedule: Q01DX001 (ip), vehicle: saline with Tween-80
[6] = endpoint: mean survival time, dose: 200.0 mg/kg/injection, schedule: Q01DX001 (ip), vehicle: saline with Tween-80
[7] = endpoint: mean survival time, dose: 400.0 mg/kg/injection, schedule: Q01DX001 (ip), vehicle: saline with Tween-80
[8] = endpoint: mean survival time, dose: 100.0 mg/kg/injection, schedule: Q01DX009 (ip), vehicle: saline with Tween-80
[9] = endpoint: mean survival time, dose: 200.0 mg/kg/injection, schedule: Q01DX009 (ip), vehicle: saline with Tween-80

`Cc1c[nH]c(=S)[nH]c1=O.[Pd]` was tested, and the T/C (endpoint: mean survival time, dose: 3.12 mg/kg/injection, schedule: Q04DX003 (ip), vehicle: saline) was 94 % of control, the T/C (endpoint: mean survival time, dose: 6.25 mg/kg/injection, schedule: Q04DX003 (ip), vehicle: saline) was 102 % of control and the T/C (endpoint: mean survival time, dose: 12.5 mg/kg/injection, schedule: Q04DX003 (ip), vehicle: saline) was 97 % of control. For the same compound, the T/C (endpoint: mean survival time, dose: 25.0 mg/kg/injection, schedule: Q04DX003 (ip), vehicle: saline) was 102 % of control, the T/C (endpoint: mean survival time, dose: 50.0 mg/kg/injection, schedule: Q04DX003 (ip), vehicle: saline) was 100 % of control and the T/C [1] was 100 % of control. For the same compound, the T/C [2] was 96 % of control.
`Nc1nc2nc3c(nc2c(=O)[nH]1)CN(c1ccc(C(=O)O)cc1)C3=O` was tested, and the T/C [3] was 95 % of control and the T/C [4] was 97 % of control.
`CC1(C)CCC2(CC1)CC(=O)OC(=O)C2` was tested, and the T/C [5] was 90 % of control, the T/C [6] was 87 % of control and the T/C [7] was 92 % of control.
In the case of `O=C(C[n+]1cc2ccccc2c2ccccc21)c1ccccc1`, the T/C [1] is reported as 95 % of control and the T/C [2] is reported as 86 % of control.
In the case of `O/N=C\c1cccc2ccccc12`, the T/C [3] is reported as 97 % of control and the T/C [4] is reported as 101 % of control.
In the case of `CN(C)CCNC(=O)C(c1ccccc1)c1ccccc1`, the T/C [3] is reported as 104 % of control.
`CCOC(=O)CN1C(=O)c2ccccc2C1=O` was tested, and the T/C (endpoint: mean survival time, dose: 12.5 mg/kg/injection, schedule: Q01DX009 (ip), vehicle: other) was 97 % of control, the T/C (endpoint: mean survival time, dose: 25.0 mg/kg/injection, schedule: Q01DX009 (ip), vehicle: other) was 97 % of control and the T/C (endpoint: mean survival time, dose: 50.0 mg/kg/injection, schedule: Q01DX009 (ip), vehicle: other) was 98 % of control. For the same compound, the T/C (endpoint: mean survival time, dose: 50.0 mg/kg/injection, schedule: Q01DX009 (ip), vehicle: saline with Tween-80) was 88 % of control, the T/C (endpoint: mean survival time, dose: 100.0 mg/kg/injection, schedule: Q01DX009 (ip), vehicle: other) was 93 % of control and the T/C [8] was 103 % of control. The T/C (endpoint: mean survival time, dose: 200.0 mg/kg/injection, schedule: Q01DX009 (ip), vehicle: other) was 97 % of control and the T/C [9] was 92 % of control.
With `COC(=O)C1CCC2C3CC=C4CC(O)CCC4(C)C3CCC12C` (stereo not drawn) the T/C [5] was 98 % of control, the T/C [6] was 93 % of control and the T/C [7] was 93 % of control.
In the case of `CS(=O)(=O)c1nc(Cl)c(Cl)c(C#N)c1Cl`, the T/C (endpoint: mean survival time, dose: 5.0 mg/kg/injection, schedule: Q01DX009 (ip), vehicle: saline with Tween-80) is reported as 100 % of control, the T/C (endpoint: mean survival time, dose: 10.0 mg/kg/injection, schedule: Q01DX009 (ip), vehicle: saline with Tween-80) is reported as 95 % of control and the T/C (endpoint: mean survival time, dose: 20.0 mg/kg/injection, schedule: Q01DX009 (ip), vehicle: saline with Tween-80) is reported as 95 % of control.
`Nc1cc(Cl)c2[nH]cnc2n1` was tested, and the T/C (endpoint: mean survival time, dose: 6.25 mg/kg/injection, schedule: Q01DX009 (ip), vehicle: distilled water + Tween-80) was 107 % of control, the T/C (endpoint: mean survival time, dose: 6.25 mg/kg/injection, schedule: Q01DX009 (ip), vehicle: water) was 102 % of control and the T/C (endpoint: mean survival time, dose: 12.5 mg/kg/injection, schedule: Q01DX009 (ip), vehicle: distilled water + Tween-80) was 120 % of control. The T/C (endpoint: mean survival time, dose: 12.5 mg/kg/injection, schedule: Q01DX009 (ip), vehicle: water) was 113 % of control, the T/C (endpoint: mean survival time, dose: 25.0 mg/kg/injection, schedule: Q01DX009 (ip), vehicle: distilled water + Tween-80) was 150 % of control and the T/C (endpoint: mean survival time, dose: 50.0 mg/kg/injection, schedule: Q01DX009 (ip), vehicle: distilled water + Tween-80) was 150 % of control and 164 % of control. The T/C (endpoint: mean survival time, dose: 50.0 mg/kg/injection, schedule: Q04DX003 (ip), vehicle: Klucel (hydroxypropylcellulose) (HPC)) was 118 % of control and 110 % of control, the T/C (endpoint: mean survival time, dose: 85.0 mg/kg/injection, schedule: Q04DX003 (ip), vehicle: saline with Tween-80) was 108 % of control and the T/C (endpoint: mean survival time, dose: 100.0 mg/kg/injection, schedule: Q01DX009 (ip), vehicle: distilled water + Tween-80) was 151 % of control and 185 % of control. The T/C (endpoint: mean survival time, dose: 100.0 mg/kg/injection, schedule: Q04DX003 (ip), vehicle: Klucel (hydroxypropylcellulose) (HPC)) was 115 % of control and 109 % of control, the T/C (endpoint: mean survival time, dose: 200.0 mg/kg/injection, schedule: Q01DX009 (ip), vehicle: distilled water + Tween-80) was 153 % of control and 228 % of control and the T/C (endpoint: mean survival time, dose: 200.0 mg/kg/injection, schedule: Q04DX003 (ip), vehicle: Klucel (hydroxypropylcellulose) (HPC)) was 108 % of control. For the same compound, the T/C (endpoint: mean survival time, dose: 300.0 mg/kg/injection, schedule: Q04DX003 (ip), vehicle: Klucel (hydroxypropylcellulose) (HPC)) was 120 % of control and 109 % of control, the T/C (endpoint: mean survival time, dose: 400.0 mg/kg/injection, schedule: Q01DX009 (ip), vehicle: distilled water + Tween-80) was 100 % of control and the T/C (endpoint: median survival time, dose: 6.0 mg/kg/injection, schedule: Q01DX009 (ip), vehicle: Klucel (hydroxypropylcellulose) (HPC)) was 108 % of control. For the same compound, the T/C (endpoint: median survival time, dose: 12.0 mg/kg/injection, schedule: Q01DX009 (ip), vehicle: Klucel (hydroxypropylcellulose) (HPC)) was 119 % of control, the T/C (endpoint: median survival time, dose: 25.0 mg/kg/injection, schedule: Q01DX005 (ip), vehicle: saline with Tween-80) was 120 % of control and the T/C (endpoint: median survival time, dose: 25.0 mg/kg/injection, schedule: Q01DX009 (ip), vehicle: Klucel (hydroxypropylcellulose) (HPC)) was 152 % of control. The T/C (endpoint: median survival time, dose: 25.0 mg/kg/injection, schedule: Q01DX009 (ip), vehicle: saline with Tween-80) was 153 % of control, the T/C (endpoint: median survival time, dose: 50.0 mg/kg/injection, schedule: Q01DX009 (ip), vehicle: Klucel (hydroxypropylcellulose) (HPC)) was 172 % of control and the T/C (endpoint: median survival time, dose: 50.0 mg/kg/injection, schedule: Q01DX009 (ip), vehicle: saline with Tween-80) was 188 % of control. The T/C (endpoint: median survival time, dose: 100.0 mg/kg/injection, schedule: Q01DX005 (ip), vehicle: saline with Tween-80) was 161 % of control, the T/C (endpoint: median survival time, dose: 100.0 mg/kg/injection, schedule: Q01DX009 (ip), vehicle: Klucel (hydroxypropylcellulose) (HPC)) was 178 % of control and the T/C (endpoint: median survival time, dose: 100.0 mg/kg/injection, schedule: Q01DX009 (ip), vehicle: saline with Tween-80) was 160 % of control. The T/C (endpoint: median survival time, dose: 200.0 mg/kg/injection, schedule: Q01DX005 (ip), vehicle: saline with Tween-80) was 159 % of control.
In the case of `NC(=S)c1cccc2ccccc12`, the T/C (endpoint: mean survival time, dose: 100.0 mg/kg/injection, schedule: Q04DX002 (ip), vehicle: Klucel (hydroxypropylcellulose) (HPC)) is reported as 105 % of control, the T/C (endpoint: mean survival time, dose: 200.0 mg/kg/injection, schedule: Q04DX002 (ip), vehicle: Klucel (hydroxypropylcellulose) (HPC)) is reported as 98 % of control and the T/C (endpoint: mean survival time, dose: 400.0 mg/kg/injection, schedule: Q04DX002 (ip), vehicle: Klucel (hydroxypropylcellulose) (HPC)) is reported as 110 % of control.
For `CCOc1ccccc1/C=C1\N=C(c2cc(OC)c(OC)c(OC)c2)OC1=O`, the T/C (endpoint: mean survival time, dose: 100.0 mg/kg/injection, schedule: Q04DX002 (ip), vehicle: saline with Tween-80) was 106 % of control, the T/C (endpoint: mean survival time, dose: 200.0 mg/kg/injection, schedule: Q04DX002 (ip), vehicle: saline with Tween-80) was 100 % of control and the T/C (endpoint: mean survival time, dose: 400.0 mg/kg/injection, schedule: Q04DX002 (ip), vehicle: saline with Tween-80) was 95 % of control.
For `CCNc1nc(Cl)nc(NC(C)C)n1`, the T/C [8] was 93 % of control, the T/C [1] was 95 % of control and the T/C [9] was 98 % of control. For the same compound, the T/C [2] was 101 % of control and the T/C (endpoint: mean survival time, dose: 400.0 mg/kg/injection, schedule: Q04DX003 (ip), vehicle: saline) was 92 % of control.
In the case of `O=C1/C(=N/O)Cc2ccccc21`, the T/C (endpoint: mean survival time, dose: 12.5 mg/kg/injection, schedule: Q01DX009 (ip), vehicle: saline with Tween-80) is reported as 97 % of control.
`CC1=C(C)C(C(=O)O)C1C(=O)O` (stereo not drawn) was tested, and the T/C [5] was 88 % of control and the T/C [6] was 97 % of control.
`O/N=C1\CCCC\C1=N/O.O/N=C1\CCCC\C1=N/O.[Pt]` was tested, and the T/C (endpoint: mean survival time, dose: 3.13 mg/kg/injection, schedule: Q04DX003 (ip), vehicle: dextrose) was 98 % of control, the T/C (endpoint: mean survival time, dose: 6.25 mg/kg/injection, schedule: Q04DX003 (ip), vehicle: dextrose) was 98 % of control and the T/C (endpoint: mean survival time, dose: 12.5 mg/kg/injection, schedule: Q04DX003 (ip), vehicle: dextrose) was 101 % of control. The T/C (endpoint: mean survival time, dose: 25.0 mg/kg/injection, schedule: Q04DX003 (ip), vehicle: dextrose) was 98 % of control, the T/C (endpoint: mean survival time, dose: 50.0 mg/kg/injection, schedule: Q04DX003 (ip), vehicle: dextrose) was 97 % of control and 101 % of control and the T/C (endpoint: mean survival time, dose: 100.0 mg/kg/injection, schedule: Q04DX003 (ip), vehicle: dextrose) was 93 % of control and 101 % of control. For the same compound, the T/C (endpoint: mean survival time, dose: 200.0 mg/kg/injection, schedule: Q04DX003 (ip), vehicle: dextrose) was 96 % of control and 101 % of control and the T/C (endpoint: mean survival time, dose: 400.0 mg/kg/injection, schedule: Q04DX003 (ip), vehicle: dextrose) was 101 % of control.
For `Cc1cc(N(CC(C)Br)CC(C)Br)ccc1N=Nc1ccccc1C(=O)O` (stereo not drawn), the T/C (endpoint: mean survival time, dose: 3.13 mg/kg/injection, schedule: Q01DX009 (ip), vehicle: saline with Tween-80) was 105 % of control and 112 % of control, the T/C (endpoint: mean survival time, dose: 6.25 mg/kg/injection, schedule: Q01DX009 (ip), vehicle: Klucel (hydroxypropylcellulose) (HPC)) was 106 % of control and the T/C (endpoint: mean survival time, dose: 6.25 mg/kg/injection, schedule: Q01DX009 (ip), vehicle: saline with Tween-80) was 114 % of control and 117 % of control and 109 % of control. For the same compound, the T/C (endpoint: mean survival time, dose: 25.0 mg/kg/injection, schedule: Q01DX009 (ip), vehicle: Klucel (hydroxypropylcellulose) (HPC)) was 119 % of control and the T/C (endpoint: mean survival time, dose: 25.0 mg/kg/injection, schedule: Q01DX009 (ip), vehicle: saline with Tween-80) was 86 % of control.
